Measured values published in patent US20230263822A1, “MODULATION OF FACTOR 11 EXPRESSION” (Ionis Pharmaceuticals, Inc., priority 2008, published 2023).
Strand notation (5' to 3'): a small letter for the sugar, then the base; units joined by * are phosphorothioate-linked, units joined directly phosphodiester-linked; [ ] holds rarer units or linkages, { } end groups; capitals alone tell only the bases. e = 2'-O-(2-methoxyethyl) (MOE); [5mC] = 5-methylcytosine; d = 2'-deoxy (DNA)

Columns and labels:
[1] = Tolerability in CD1 mice: kidney function, BUN, creatinine (Example 33); conditions: plasma, 50 mg/kg s.c. twice a week
Protocol: A control group of five mice was injected subcutaneously with PBS for 2 weeks. All experimental groups (i.e. ASO treated mice at 2, 4, 6 weeks) were compared to the control group (i.e. PBS, 2 weeks).
To evaluate the effect of ISIS oligonucleotides on kidney function, plasma concentrations of blood urea nitrogen (BUN) and creatinine were measured using an automated clinical chemistry analyzer (Hitachi Olympus AU400e, Melville, N.Y.).

[2] = Bleeding assay, Surgicutt Jr. device (Example 45); format: in vivo, cynomolgus monkeys; set-up: unit not given here; conditions: escalating dose regimen
Protocol: (§1) Groups, each consisting of two male and three female monkeys, were injected subcutaneously with ISIS 416838, ISIS 416850, ISIS 416858, ISIS 416864, or ISIS 417002 in escalating doses. Antisense oligonucleotide was administered to the monkeys at 5 mg/kg three times per a week for week 1; 5 mg/kg twice per week for weeks 2 and 3; 10 mg/kg three times per week for week 4; 10 mg/kg twice per week for weeks 5 and 6; 25 mg/kg three times per week for week 7; and 25 mg/kg twice per week for weeks 8, 9, 10, 11, and 12. One control group, consisting of two male and three female monkeys, was injected subcutaneously with PBS according to the same dosing regimen. An additional experimental group, consisting of two male and three female monkeys, was injected subcutaneously with ISIS 416850 in a chronic, lower dose regimen. Antisense oligonucleotide was administered to the monkeys at 5 mg/kg three times per week for week 1; 5 mg/kg twice per week for week 2 and 3; 10 mg/kg three times per week for week 4; and 10 mg/kg twice per week for weeks 5 to 12. Body weights were measured weekly. Blood samples were collected 14 days and 5 days before the start of treatment and subsequently once per week for Factor 11 protein activity analysis in plasma, fibrinogen measurement, PT and aPTT measurements, bleeding times, and measurement of various hematologic factors. On day 85, the monkeys were euthanized by exsanguination while under deep anesthesia, and organs harvested for further analysis.
On different days during the treatment period, bleeding assay was performed using a Surgicutt Jr. device (ITC, New Jersey). Monkeys were placed in monkey chair with their arm placed in a steady support. The arm was lightly shaved and a sphygmomanometer was placed on the upper arm. The cuff of the sphygmomanometer was inflated to 40 mm Hg and this pressure was maintained throughout the procedure. The area on the upper arm to be incised was cleansed with an antiseptic swab and the Surgicutt Jr device was used to make an incision over the lateral aspect, volar surface of the forearm, parallel to and 5 cm below the antecubital crease. At the exact moment the incision was made, a stopwatch was started. Every 30 seconds, blood from the incision was blotted out using a blotting paper without directly touching the incision, so that formation of the platelet plug was not disturbed. Blood was blotted out every 30 seconds until blood no longer stained the paper. The stopwatch was then stopped and the bleeding time determined. The sphygmomanometer was removed from the animal's arm, the incision site was antiseptically swabbed and a wound closure strip applied. The ISIS oligonucleotide, ISIS 416850, given with the chronic dose regimen is distinguished from the other oligonucleotides with an asterisk (*).

[3] = test system: Factor 11 activity; assay: Factor 11 protein activity, F11 assay based on clotting time (Example 45); format: in vivo, cynomolgus monkeys; conditions: escalating dose regimen
Protocol: as §1
Blood samples were collected at various time points and Factor 11 proenzyme was measured using a F11 assay based on clotting time. Clotting times were determined in duplicate with a ST4 semi-automated coagulation instrument (Diagnostica Stago, NJ). Thirty μl of citrated sample plasma diluted 1/20 in HEPES-NaCl buffer with BSA was incubated with 30 μl aPTT reagent (Automated aPTT, Organon Technika, NC) and 30 μl of citrated plasma deficient of Factor 11 (George King Bio-Medical Inc.) at 37° C. for 5 min, followed by the addition of 30 μl of 25 mM CaCl2) to initiate clotting. Results were interpolated on a standard curve of serially diluted citrated control plasma.
Results are presented in Table 118 as percent inhibition of Factor 11 activity, relative to PBS control. The ISIS oligonucleotide, ISIS 416850, given with the chronic dose regimen is distinguished from the other oligonucleotides with an asterisk (*).

[4] = mouse, in vivo, sc, 50 mg/kg
[5] = Kidney function, BUN, urine protein to creatinine ratio in cynomolgus monkeys (Example 46); format: in vivo; conditions: for Urine protein/creatinine ratio: day 49
Protocol: Groups, each consisting of two male and two female monkeys, were injected subcutaneously with 25 mg/kg of ISIS 416850, ISIS 449709, ISIS 445522, ISIS 449710, ISIS 449707, ISIS 449711, ISIS 449708, 416858, and ISIS 445531. Antisense oligonucleotide was administered to the monkeys at 25 mg/kg three times per week for week 1 and 25 mg/kg twice per week for weeks 2 to 8. A control group, consisting of two male and two female monkeys was injected subcutaneously with PBS according to the same dosing regimen. Body weights were taken 14 days and 7 days before the start of treatment and were then measured weekly throughout the treatment period. Blood samples were collected 14 days and 5 days before the start of treatment and subsequently several times during the dosing regimen for PT and aPTT measurements, and measurement of various hematologic factors. On day 55, the monkeys were euthanized by exsanguination while under deep anesthesia, and organs harvested for further analysis.
To evaluate the impact of ISIS oligonucleotides on kidney function, urine samples were collected on different days. […] The ratio of urine protein to creatinine in urine samples after antisense oligonucleotide treatment was also calculated for day 49 and results are presented in Table 156. As observed in Tables 155 and 156, there were no significant increases in any of the kidney metabolic markers after antisense oligonucleotide treatment.

[6] = Day −5 (before start of treatment)
[7] = Day −14 (before start of treatment)

Substance | BUN ([1]; 2 weeks) [mg/dL] | Creatinine ([1]; 2 weeks) [mg/dL] | BUN ([1]; 4 weeks) [mg/dL] | Creatinine ([1]; 4 weeks) [mg/dL] | BUN ([1]; 6 weeks) [mg/dL] | Creatinine ([1]; 6 weeks) [mg/dL] | bleeding time ([2]; day 15) | bleeding time ([2]; day 22) | bleeding time ([2]; day 36) | bleeding time ([2]; day 43) | bleeding time ([2]; day 57) | bleeding time ([2]; day 64) | bleeding time ([2]; day 78) | bleeding time ([2]; day 85) | bleeding time ([2]; day −5) | bleeding time ([2]; day −14) | percent inhibition of Factor 11 activity, relative to PBS control ([3]; day 8) [%] | percent inhibition of Factor 11 activity, relative to PBS control ([3]; day 15) [%] | percent inhibition of Factor 11 activity, relative to PBS control ([3]; day 22) [%] | percent inhibition of Factor 11 activity, relative to PBS control ([3]; day 29) [%] | other results
ISIS 416838: MOE gapmer, nucleobases 1018 to 1042 of SEQ ID NO: 1 (Table 6) (antisense GCAACCGGGATGATGAGTGC; MOE gapmer, wing and gap sizes not given here) | 25 | 0.09 | 38 | 0.27 | 30 | 0.14 | 167 | 165 | 166 | 120 | 238 | 131 | 145 | 201 | 150 | 200 | 3 | 4 | 5 | 8 | percent inhibition of Factor 11 activity, relative to PBS control ([3]; day 36): 11%; percent inhibition of Factor 11 activity, relative to PBS control ([3]; day 43): 5%; percent inhibition of Factor 11 activity, relative to PBS control ([3]; day 50): 8%; percent inhibition of Factor 11 activity, relative to PBS control ([3]; day 57): 10%; percent inhibition of Factor 11 activity, relative to PBS control ([3]; day 64): 11%; percent inhibition of Factor 11 activity, relative to PBS control ([3]; day 71): 12%; percent inhibition of Factor 11 activity, relative to PBS control ([3]; day 78): 10%; percent inhibition of Factor 11 activity, relative to PBS control ([3]; day 85): 10%; percent inhibition of Factor 11 activity, relative to PBS control ([3]; day −5): 0%; percent inhibition of Factor 11 activity, relative to PBS control ([3]; day −14): 0%
ISIS 416864: MOE gapmer, nucleobases 1275 to 1318 of SEQ ID NO: 1 (Table 8) (antisense GGCAGCGGACGGCATTGGTG; MOE gapmer, wing and gap sizes not given here) | 22 | 0.11 | 31 | 0.22 | 28 | 0.16 | 153 | 133 | 205 | 146 | 216 | 218 | 170 | 203 | 111 | 166 | 7 | 9 | 7 | 10 | percent inhibition of Factor 11 activity, relative to PBS control ([3]; day 36): 9%; percent inhibition of Factor 11 activity, relative to PBS control ([3]; day 43): 9%; percent inhibition of Factor 11 activity, relative to PBS control ([3]; day 50): 10%; percent inhibition of Factor 11 activity, relative to PBS control ([3]; day 57): 7%; percent inhibition of Factor 11 activity, relative to PBS control ([3]; day 64): 5%; percent inhibition of Factor 11 activity, relative to PBS control ([3]; day 71): 10%; percent inhibition of Factor 11 activity, relative to PBS control ([3]; day 78): 9%; percent inhibition of Factor 11 activity, relative to PBS control ([3]; day 85): 8%; percent inhibition of Factor 11 activity, relative to PBS control ([3]; day −5): 5%; percent inhibition of Factor 11 activity, relative to PBS control ([3]; day −14): 0%; ALT [4]: 36 IU/L; AST [4]: 67 IU/L; Bilirubin [4]: 0.19 mg/dL; Cholesterol [4]: 152 mg/dL
ISIS 417002: MOE gapmer, nucleobases 1275 to 1318 of SEQ ID NO: 1 (Table 8) (antisense GGTGCACAGTTTCTGGCAGG; MOE gapmer, wing and gap sizes not given here) | 19 | 0.06 | 23 | 0.16 | 19 | 0.10 | 174 | 194 | 186 | 120 | 206 | 146 | 163 | 182 | 175 | 185 | 0 | 4 | 2 | 8 | percent inhibition of Factor 11 activity, relative to PBS control ([3]; day 36): 8%; percent inhibition of Factor 11 activity, relative to PBS control ([3]; day 43): 9%; percent inhibition of Factor 11 activity, relative to PBS control ([3]; day 50): 13%; percent inhibition of Factor 11 activity, relative to PBS control ([3]; day 57): 24%; percent inhibition of Factor 11 activity, relative to PBS control ([3]; day 64): 26%; percent inhibition of Factor 11 activity, relative to PBS control ([3]; day 71): 30%; percent inhibition of Factor 11 activity, relative to PBS control ([3]; day 78): 22%; percent inhibition of Factor 11 activity, relative to PBS control ([3]; day 85): 23%; percent inhibition of Factor 11 activity, relative to PBS control ([3]; day −5): 0%; percent inhibition of Factor 11 activity, relative to PBS control ([3]; day −14): 0%
ISIS 445522: 5-8-5 or 6-8-6 MOE microwalk gapmer (Table 44) (antisense eG*e[5mC]*eA*e[5mC]*eA*dG*dT*dT*dT*d[5mC]*dT*dG*dG*e[5mC]*eA*eG*eG*e[5mC]) |  |  |  |  |  |  |  |  |  |  |  |  |  |  |  |  |  |  |  |  | BUN levels ([5]; Day 31): 22 mg/dL; BUN levels ([5]; Day 55): 22 mg/dL; BUN levels [5, 6]: 22 mg/dL; BUN levels [5, 7]: 23 mg/dL; Urine protein/creatinine ratio [5]: 0.01
ISIS 445531: 5-8-5 or 6-8-6 MOE microwalk gapmer (Table 44) (antisense eG*eG*e[5mC]*eA*eT*dT*dG*dG*dT*dG*d[5mC]*dA*d[5mC]*eA*eG*eT*eT*eT) |  |  |  |  |  |  |  |  |  |  |  |  |  |  |  |  |  |  |  |  | BUN levels ([5]; Day 31): 20 mg/dL; BUN levels ([5]; Day 55): 22 mg/dL; BUN levels [5, 6]: 18 mg/dL; BUN levels [5, 7]: 22 mg/dL; Urine protein/creatinine ratio [5]: 0.08
